Like-named read-outs stand apart in the source and are kept apart here. Bridge positions count the residues as written; N and C are the ends. Square brackets hold non-standard residues; d marks the D form. Ends that are not written are not given here. Peptide text beside a SMILES is read from it.
Experiments:
HT29 cells [1] = settings: for shift of EC50 of competition relative to RPM peptide: alanine mutants vs RPM peptide; for ability of peptide to compete RPM (CPIEDRPMC) phage binding to HT29 cells: peptide 0-1000 μM; for ability of peptide to compete RPM (CPIEDRPMC) phage binding to HT29 cells / level of RPM associated phage binding to HT29 cells in presence of competitor: 4° C.; for level of RPM associated phage binding to HT29 cells in presence of competitor: percentage of phage bound in absence of competitor
Method: Phage binding assay. HT29 cells were incubated with peptide in binding buffer at concentrations of 0, 0.1, 1, 10, 100, or 1000 μM for 30 minutes at 4° C. After 30 minutes of incubation, 10^10 pfu of phage were added to the cells and incubated at 4° C. for an additional 45 minutes. Following incubation, cells were washed 6× with wash buffer and the phage remaining bound were eluted with glycine. The number of phage bound to the cells was quantified with real time PCR.
To determine whether […] (SEQ ID NO: 134) displaying phage bind to HT29 cells specifically, a competition assay was performed using phage and synthetic peptides, peptides corresponding to the specific sequence, […] (SEQ ID NO: 134), and the non-specific sequence, […] (SEQ ID NO: 135), were synthesized by standard methods and oxidized to form a disulfide bond. Reaction of the peptides before and after oxidation with ElIman's reagent was performed to verify presence of the disulfide bond. […] In FIG. 2A, HT29 cells were incubated with increasing log concentrations of […] (SEQ ID NO: 134) peptide and with a constant number of either specific or non-specific phage. The number of phage binding to the HT29 cells was quantified and the percentage binding calculated based on the number of phage that bind in the absence of competitor. The sequence […] The reciprocal experiment was also done with HT29 cells incubated with increasing log concentrations of specific or non-specific peptide and a constant concentration of phage displaying the peptide […] (SEQ ID NO: 134).
The phage selection procedure produced naturally occurring substitution mutants so the phage and the peptide could be used to determine a functional consensus sequence for the family. HT29 cells were incubated with increasing log concentrations of […] (SEQ ID NO: 134) peptide and a constant number of phage displaying one of the sequences were selected.
To examine the importance of each residue within the RPM sequence for binding to HT29 cells, peptides were synthesized having alanine mutations in either the arginine, proline, or methionine residue and used in phage competition assay as described above.

HT29 cells [2] = assay: Protease assay: RPM phage binding to protease-treated cells; settings: 37° C.
Method: HT29 cells were incubated at 37° C. with either active or boiled Collagenase diluted 1:20 for 10 minutes, Trypsin-EDTA 0.25% (Gibco) for 5 minutes or Proteinase K (Gibco) diluted 1:600 for 1 minute. After incubation, cells were then incubated with RPM bearing phage as described above. The number of phage remaining bound was quantified by real time PCR.
(§1) In order to further this observation, HT29 cells were treated with active or boiled proteases to determine the effect of treatment on the ability of an RPM displaying phage to bind. HT29 cells were treated with active or boiled collagenase for 15 minutes, trypsin for 5 minutes, or proteinase K for 0.5 minutes at 37° C. After protease treatment, cells were washed, then an equal number of phage were added and allowed to bind. […] The decrease in phage binding to the HT29 cells was due to the protease activity since boiling the proteases abolished the effect with phage binding returning to levels of that observed for PBS treated cells (FIG. 6B). […] After treating HT29 cells with proteases as described above, MTT was added to the cells and incubated for 45 minutes at 37° C. After incubation, the cells were solubilized with 0.1N HCl in isopropanol and the absorbance due to MTT incorporation was determined.

HT29 cells [3] = assay: MTT viability of protease-treated cells; type: cell-based; settings: MTT 45 minutes at 37° C. after protease treatment
Method: as §1

HT29 cells [4] = assay: RPM-FITC immunofluorescence staining of cultured cells (confocal microscopy); type: cell-based
Method: Cell Culture: HT29, HCT116, or a 50% mixture of HT29 and HCT116 cells were plated on glass slides (Nalge). Wells were incubated with 10 μM of RPM-FITC peptide for 45 minutes at 4° C. or 37° C. After washing with wash buffer, cells were blocked with 1% NGS, 0.1% BSA, 0.1% Triton-X100 in PBS. Following the blocking step, wells were incubated with the polyclonal p53 antibody, D10, (Santa Cruz) for 1 hour at room temperature. The wells were washed and incubated with the secondary antibodies GαFITC Alexa 488 (Molecular Probes) and GαMouse Alexa 647 (Molecular Probes) and the nuclear stain Topro-3 (Molecular Probes). Wells were washed and mounted using Pro-Long Anti-fade (Molecular Probes). Slides were analyzed by confocal microscopy.
The peptide then was tested to determine whether it was able to differentiate HT29 from HCT116 cells. In order to distinguish HT29 from HCT116 cells in our immunohistochemical assays, staining was carried out in the presence of the transcription factor, p53. Staining for the protein p53 is a way to visually discriminate HT29 from HCT116 cells, since p53 is mutated and accumulates in HT29 cells but is wild type in HCT116 cells and thus, is rapidly degraded. […] To test the ability of the fluorescein conjugated peptide (RPM-FITC) to preferentially bind HT29 cells, HT29 and HCT116 cells were stained with RPM-FITC. […] When a mixture of HT29 and HCT116 cells was incubated with RPM-FITC and concurrently analyzed for the presence of p53, cells with the highest level of p53 protein also bound RPM-FITC (FIG. 5A).
The ability of a molecule to translocate across the cell membrane is important for drug delivery. HT29 cells were incubated for 1 hour at either 4° C. or 37° C. in the presence of 100 uM RPM-FITC. After incubation, cells were washed, fixed with 2% paraformaldehyde, then incubated with an anti-FITC secondary antibody to amplify the fluorescence signal.

human colon tumor = assay: Peptide-binding assay on frozen tissue sections
Method: (§2) A biopsy of sporadic colon adenocarcinoma, liver and lung sarcoma, and grossly uninvolved colon, liver, lung, and stomach were frozen in optimum cutting temperature (OCT) and […] cryostat sections placed on glass slides. Sections were stained with H&E and untreated adjacent sections were incubated with RPM-FITC. After incubating with RPM-FITC in binding buffer for 45 minutes at 4° C., slides were washed and mounted using Pro-Long Anti-Fade (Molecular Probes). Nuclei were visualized by a quick incubation with Topro-3 (Molecular Probes) present in the last wash. Samples were analyzed by confocal microscopy.

[5] = system: lung and liver cancer, grossly uninvolved lung, liver, and stomach; assay: Peptide-binding assay on frozen tissue sections; set-up: species or system human; settings: cryostat sections
Method: as §2
To determine whether RPM-FITC was able to bind cancers originated from tissues other than colon or to other normal tissues, a peptide-binding assay was performed on cryostat sections of lung and liver cancer, and grossly uninvolved lung, liver, and stomach. As a positive control, a section of colon tumor was stained in parallel with the other sections. […] Binding to HT29 Cells is Dependent on the Amino Acids, RPMC-C (SEQ ID NO: 136).

HCT116 cells = assay: MTT cell viability after RPM-KLAK or KLAK; type: cell-based; settings: 72 hours at 37° C.
Method: (§3) RPM-KLAK (SEQ ID NO: 132) and KLAK (SEQ ID NO: 133) on HT29 and HCT116 cells. HT29 and HCT116 cells were incubated with increasing log concentrations of RPM-KLAK (SEQ ID NO: 132) or KLAK (SEQ ID NO: 133) for 72 hours at 37° C. After incubation, MTT was added to a final concentration of […] and incubated at 37° C. for 1 hour. The media/MTT was removed carefully and the cells dissolved with 0.1N HCl in isopropanol. Absorbance was read on a plate reader (Cytofluor II, Perceptive Biosystems) at 570 nm.
(§4) Since RPM-FITC is internalized at 37° C., RPM may be used to deliver a toxin to HT29 cells. […] Cells that were incubated with (KLAK)2 (SEQ ID NO: 138) alone or with free peptide were refractory to death induced by the toxin. However, when a peptide that was specific and also internalized by cells was conjugated to (KLAK)2 (SEQ ID NO: 138), the cells were killed. RPM was coupled to (KLAK)2 (SEQ ID NO: 138) and incubated with HT29 and HCT116 cells with either (KLAK)2 (SEQ ID NO: 138) alone as a negative control or RPM-(KLAK)2 (SEQ ID NO: 5). Cells were treated for 72 hours at 37° C. At the end of the incubation, cell viability was measured by MTT assay. […] This was indeed observed for HCT116 incubation with RPM (KLALK)2 (SEQ ID NO: 5) (FIG. 6B).

HT29 cells [6] = assay: MTT cell viability after RPM-KLAK or KLAK; type: cell-based; settings: 72 hours at 37° C.
Method: as §3, §4

In the case of `CC[C@H](C)[C@@H]1NC(=O)[C@@H]2CCCN2C(=O)[C@@H](N)CSSC[C@@H](C(=O)O)NC(=O)[C@H](CCSC)NC(=O)[C@@H]2CCCN2C(=O)[C@H](C)NC(=O)[C@H](CC(=O)O)NC(=O)[C@H](CCC(=O)O)NC1=O` [APM] (H-CPIEDAPMC-OH; disulfide 1-9 (inferred); N-terminus and C-terminus assumed), the EC50 (HT29 cells [1]) is reported as 690 µM and the “shift of EC50 of competition relative to RPM peptide” value (HT29 cells [1]) is reported as about 100 fold.

With “A11 D RPM: RPM peptide consisting of all D amino acids ([dC][dP][dI][dE][dD][dR][dP][dM][dC]; cysteine pairing not given here)” the “ability of peptide to compete RPM (CPIEDRPMC) phage binding to HT29 cells” value (“ability of peptide to compete RPM” below) (HT29 cells [1]) was “not able to compete” and the “ability of peptide to compete RPM” value (HT29 cells [1]; listed as peptide synthesized with all D amino acids) was “failed to compete”.

With trypsin the “decrease of RPM phage binding to active protease treated HT29 cells” value (HT29 cells [2]) was 90% and the “average absorbance (MTT incorporation) of treated cells” value (HT29 cells [3]) was 0.175.

With `CC[C@H](C)[C@@H]1NC(=O)[C@@H]2CCCN2C(=O)[C@@H](N)CSSC[C@@H](C(=O)O)NC(=O)[C@H](CCSC)NC(=O)[C@@H]2CCCN2C(=O)[C@H](CCCNC(=N)N)NC(=O)[C@H](CC(=O)O)NC(=O)[C@H](CCC(=O)O)NC1=O` [CPIEDRPMC, cys-pro-ile-glu-asp-arg-pro-met-cys] (H-CPIEDRPMC-OH; disulfide 1-9) the “ability of peptide to compete RPM” value (HT29 cells [1]) was “able to compete”, the “ability of peptide to compete RPM” value (HT29 cells [1]; listed as RPM peptide) was “successfully abolished binding” and the “level of RPM associated phage binding to HT29 cells in presence of competitor” value (HT29 cells [1]) was “less than 4%”. For the same compound, the EC50 (HT29 cells [1]; read-out: EC50 of competition, competition of RPM displaying phage on HT29 cells) was 5 µM, the “effect of unlabeled competitor on RPM-FITC staining of HT29 cells” value (HT29 cells [4]) was “able to abolish” and the “effect of unlabeled competitor on RPM-FITC binding to colon tumor” value (human colon tumor) was “abrogate binding”. The “labeling of lung and liver cancer and uninvolved lung, liver, stomach” value [5] was “failed to stain”.

For collagenase, the “decrease of RPM phage binding to active protease treated HT29 cells” value (HT29 cells [2]) was 85% and the “average absorbance (MTT incorporation) of treated cells” value (HT29 cells [3]) was 0.189.

In the case of “(KLAK)2: antimicrobial toxin that selectively disrupts the mitochondrial membrane of eukaryotic cells, SEQ ID NO: 138 / 133 (KLAKKLAK) [reference compound]”, the “effect on HCT116 cell viability” value (HCT116 cells) is reported as “did not effect the viability” and the “effect on HT29 cell viability” value (HT29 cells [6]) is reported as “did not effect the viability”.

In the case of “CKHLGPQLC (disulfide 1-9 (inferred)) [reference compound]”, the “ability of peptide to compete RPM” value (HT29 cells [1]) is reported as “not able to compete”, the “ability of peptide to compete RPM” value (HT29 cells [1]; listed as unrelated peptide) is reported as “failed to block” and the “level of RPM associated phage binding to HT29 cells in presence of competitor” value (HT29 cells [1]) is reported as 100%. The “effect of unlabeled competitor on RPM-FITC staining of HT29 cells” value (HT29 cells [4]) was “unaffected”.

In the case of `CC[C@H](C)[C@@H]1NC(=O)[C@@H]2CCCN2C(=O)[C@@H](N)CSSC[C@@H](C(=O)O)NC(=O)[C@H](C)NC(=O)[C@@H]2CCCN2C(=O)[C@H](CCCNC(=N)N)NC(=O)[C@H](CC(=O)O)NC(=O)[C@H](CCC(=O)O)NC1=O` [RPA] (H-CPIEDRPAC-OH; disulfide 1-9 (inferred); N-terminus and C-terminus assumed), the EC50 (HT29 cells [1]) is reported as 545 µM and the “shift of EC50 of competition relative to RPM peptide” value (HT29 cells [1]) is reported as about 100 fold.

For “RPM middle: peptide bearing the RPM motif in the middle of the peptide, CPIRPMEDC (SEQ ID NO: 137)”, the “fold less potent than RPM in competing with phage for HT29 cell binding” value (HT29 cells [1]; compared to RPM) was “over 100 fold” and the “ability of peptide to compete RPM” value (HT29 cells [1]) was “failed to compete”.

— US7452965B2, “Colon tumor specific binding peptides” (University of Utah Research Foundation, priority 2002, dated 2008)
